Results taken from patent US11090304B2 (Amgen Inc., priority 2018, dated 2021).
Like-named read-outs stand apart in the source and are kept apart here.

Tests used:
[1] = system: Phosphorylation of ERK1/2 in MIA PaCa-2 cells; test: Phospho-ERK1/2 MSD assay in MIA PaCa-2 cells; type: cell-based; details: Homo sapiens
Method in brief: (§1)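 MSD electrochemiluminescence readout of phospho-ERK1/2 in whole-cell lysates, IC50 by 4-parameter logistic fit. Compound titrations were applied for 2 or 4 h at 37 °C, 5% CO2, followed by 10 ng/mL EGF stimulation for 10 min before lysis.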

[2] = system: Phosphorylation of ERK1/2 in A549 cells; test: Phospho-ERK1/2 MSD assay in A549 cells; type: cell-based; details: Homo sapiens
Method in brief: as §1

[3] = target: GDP-bound KRAS protein (aa 1-169), containing both G12C and C118A amino acid substitutions (Homo sapiens, UniProt P01116, C118A/G12C); test: Coupled nucleotide exchange assay (SOS-mediated, AlphaScreen); type: biochemical; details: for Coupled exchange IC50 (2 h): 2 h compound pre-incubation; for Coupled exchange IC50 (5 min): 5 min compound pre-incubation
Sequence of GDP-bound KRAS protein (aa 1-169), containing both G12C and C118A amino acid substitutions (P01116 1-169 isoform P01116-2 G12C/C118A): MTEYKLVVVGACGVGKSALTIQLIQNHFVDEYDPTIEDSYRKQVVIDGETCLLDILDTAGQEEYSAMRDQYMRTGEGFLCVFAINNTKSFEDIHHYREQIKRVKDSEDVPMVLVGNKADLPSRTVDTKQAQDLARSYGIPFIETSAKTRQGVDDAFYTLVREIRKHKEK

[4] = MIA PaCa-2, 2 h, read-out: p-ERK IC50 (2 h; MIA PaCa-2), 2 h compound treatment
[5] = MIA PaCa-2, 4 h, read-out: p-ERK IC50 (4 h; MIA PaCa-2), 4 h compound treatment
[6] = A549, 2 h, read-out: p-ERK IC50 (2 h; A549), 2 h compound treatment
[7] = A549, 4 h, read-out: p-ERK IC50 (4 h; A549), 4 h compound treatment

IC50 [1, 4] [nM]	IC50 [1, 5] [nM]	IC50 [2, 6] [nM]	IC50 [2, 7] [nM]	Coupled exchange IC50 (2 h) [3]	Coupled exchange IC50 (5 min) [3]	Compound
2480	992	≥ 100000	≥ 11100	nda | 0.776 μM		C=CC(=O)N1CCN(c2nc(=O)n(-c3ccccc3C(C)C)c3nc(Cl)c(Cl)cc23)[C@@H](C)C1 [Example 61-1, 6,7-Dichloro-4-((2S)-2-methyl-4-(2-propenoyl)-1-piperazinyl)-1-(2-(2-propanyl)phenyl)pyrido[2,3-d]pyrimidin-2(1H)-one]
845		≥ 10000			0.147 | nda μM	C=CC(=O)N1CCN(c2nc(=O)n(-c3ccncc3C3CC3)c3cc(-c4c(O)cccc4F)c(Cl)cc23)[C@@H](C)C1 [Example 62-3, 6-chloro-1-(3 cyclopropyl-4-pyridinyl)-7-(2-fluoro-6-hydroxyphenyl)-4-((2S)-2-methyl-4-(2-propenoyl)-1-piperazinyl)-2(1H)-quinazolinone]
1310		≥ 33300		nda | 0.511 μM		C=CC(=O)N1CCN(c2nc(=O)n(-c3ccccc3C(C)C)c3nc(N4CCC4)c(Cl)cc23)[C@@H](C)C1 [Example 69-2, 7-(1-azetidinyl)-6-chloro-4-((2S)-2-methyl-4-(2-propenoyl)-1-piperazinyl)-1-(2-(2-propanyl)phenyl)pyrido[2,3-d]pyrimidin-2(1H)-one]
312		≥ 10000			0.2 | nda μM	C=CC(=O)N1CCN(c2nc(=O)n(-c3nccn3C(C)C)c3cc(-c4ccccc4F)c(Cl)cc23)[C@@H](C)C1 [Example 91, 6-Chloro-7-(2-fluorophenyl)-4-((2S)-2-methyl-4-(2-propenoyl)-1-piperazinyl)-1-(1-(2-propanyl)-1H-imidazol-2-yl)-2(1H)-quinazolinone]
	1550		108000	nda | 0.123 μM		CC(C)c1ccccc1-n1c(=O)nc(N2CCN(C(=O)/C=C/CN(C)C)CC2)c2cc(Cl)c(-c3c(O)cccc3F)cc21 [Example 92, 6-Chloro-4-(4-((2E)-4-(dimethylamino)-2-butenoyl)-1-piperazinyl)-7-(2-fluoro-6-hydroxyphenyl)-1-(2-(2-propanyl)phenyl)-2(1H)-quinazolinone]
1510		≥ 10000		112 nM	0.781 µM	C=CC(=O)N1CCN(c2nc(=O)n(-c3c(CC)cccc3CC)c3nc(C4CC4)c(Cl)cc23)[C@@H](C)C1 [Example 94, 6-Chloro-7-cyclopropyl-1-(2,6-diethylphenyl)-4-((2S)-2-methyl-4-(2-propenoyl)-1-piperazinyl)pyrido[2,3-d]pyrimidin-2(1H)-one]
4880		≥ 10000		nda | 0.916 μM		C=CC(=O)N1CCN(c2nc(=O)n(-c3ccc(OCCN=[N+]=[N-])cc3C(C)C)c3nc(N4CCCCC4)c(Cl)cc23)[C@@H](C)C1 [Example 117, 1-(4-(2-Azidoethoxy)-2-(2-propanyl)phenyl)-6-chloro-4-((2S)-2-methyl-4-(2-propenoyl)-1-piperazinyl)-7-(1-piperidinyl)pyrido[2,3-d]pyrimidin-2(1H)-one]
